Results: EPA's ToxValDB 9.5 (doi:10.2903/j.efsa.2008.177r)
Values after ≈ are worked out from the molar mass of the structure shown.

What was measured:
[1] = tested on: Plant; conditions: not reported; seedling emergence
[2] = tested on: Oncorhynchus mykiss; conditions: chronic/long-term; duration: 28 days; growth
[3] = tested on: Apis mellifera; conditions: acute; duration: 48 hours; dermal; mortality
[4] = tested on: Leuciscus idus; conditions: acute; duration: 96 hours; mortality
[5] = tested on: Daphnia magna; conditions: chronic/long-term; duration: 21 days; reproduction
[6] = tested on: Tagia sp.
[7] = tested on: Rattus norvegicus; conditions: for LD50: mortality
[8] = tested on: Bibionidae; conditions: chronic/long-term; duration: 28 days
[9] = tested on: Colinus virginianus; conditions: for LD50: acute, oral, mortality; for NOEL: reproduction developmental
[10] = tested on: Aphidius rhopalosiphi; assay: LR50; higher = less toxic; conditions: acute; duration: 48 hours; mortality
[11] = tested on: Typhlodromus pyri; assay: LR50; higher = less toxic; conditions: acute; duration: 14 days; mortality

## CC(C)(C)C(O)C(Oc1ccc(Cl)cc1)n1cncn1 (centres undefined) [Triadimenol]
[1]
  LEL: 125 g/ha
[2]
  NOEC: 3.13 mg/L
[3]
  LD50: > 200 µg/piece
[4]
  LC50: 17.4 µg/mL (≈ 58.8 µM)
[5]
  NOEC: 0.1 mg/L
[6]; acute, mortality
  LC50: 781 mg/kg
[6]; chronic/long-term
  NOEC: 100 mg/kg
[7]; acute, oral, M
  LD50: 689 mg/kg-day
[7]; acute, oral, clinical signs
  NOAEL: 2 mg/kg-day
[7]; chronic, duration: 2 years, organ weight
  NOAEL: 5 mg/kg-day
[7]; reproduction developmental, M, growth
  NOEL: 8.88 mg/kg-day
[7]; reproduction developmental, body weight
  NOAEL: 6 mg/kg-day
[7]; subchronic, clinical signs
  NOAEL: 3.4 mg/kg-day
[8]
  NOEC: 0.1 mg/L
[9]; diet
  LD50: > 705 mg/kg-day
[9]
  LD50: > 2000 mg/kg-day
  NOEL: 7.5 mg/kg-day
[10]
  LR50: > 1250 g/ha
[11]
  LR50: > 1250 g/ha

## c1nc[nH]n1 [1H-1,2,4-Triazole]
[7]; acute, oral
  LD50: 1650 mg/kg-day

## CC(C)(C)C(=O)C(Oc1ccc(Cl)cc1)n1cncn1 (centres undefined) [Triadimefon]
[9]
  NOEL: 43.5 mg/kg-day

## NC(Cc1ncn[nH]1)C(=O)O (centres undefined) [1,2,4-Triazole-3-alanine]
[7]; acute, oral
  LD50: > 5000 mg/kg-day
[9]; diet
  LD50: 1310 mg/kg-day
[9]
  LD50: > 5000 mg/kg-day
